Assay results: US9663525B2, “Pyrazolopyrimidinyl inhibitors of ubiquitin-activating enzyme” (Millennium Pharmaceuticals, Inc., priority 2012, dated 2017)

Target: recombinant human UAE (Homo sapiens (Human), UniProt P22314)
Test: Ubiquitin Activating Enzyme (UAE) HTRF assay, human UAE
Conditions: not given

recombinant human UAE, sequence (P22314 whole entry): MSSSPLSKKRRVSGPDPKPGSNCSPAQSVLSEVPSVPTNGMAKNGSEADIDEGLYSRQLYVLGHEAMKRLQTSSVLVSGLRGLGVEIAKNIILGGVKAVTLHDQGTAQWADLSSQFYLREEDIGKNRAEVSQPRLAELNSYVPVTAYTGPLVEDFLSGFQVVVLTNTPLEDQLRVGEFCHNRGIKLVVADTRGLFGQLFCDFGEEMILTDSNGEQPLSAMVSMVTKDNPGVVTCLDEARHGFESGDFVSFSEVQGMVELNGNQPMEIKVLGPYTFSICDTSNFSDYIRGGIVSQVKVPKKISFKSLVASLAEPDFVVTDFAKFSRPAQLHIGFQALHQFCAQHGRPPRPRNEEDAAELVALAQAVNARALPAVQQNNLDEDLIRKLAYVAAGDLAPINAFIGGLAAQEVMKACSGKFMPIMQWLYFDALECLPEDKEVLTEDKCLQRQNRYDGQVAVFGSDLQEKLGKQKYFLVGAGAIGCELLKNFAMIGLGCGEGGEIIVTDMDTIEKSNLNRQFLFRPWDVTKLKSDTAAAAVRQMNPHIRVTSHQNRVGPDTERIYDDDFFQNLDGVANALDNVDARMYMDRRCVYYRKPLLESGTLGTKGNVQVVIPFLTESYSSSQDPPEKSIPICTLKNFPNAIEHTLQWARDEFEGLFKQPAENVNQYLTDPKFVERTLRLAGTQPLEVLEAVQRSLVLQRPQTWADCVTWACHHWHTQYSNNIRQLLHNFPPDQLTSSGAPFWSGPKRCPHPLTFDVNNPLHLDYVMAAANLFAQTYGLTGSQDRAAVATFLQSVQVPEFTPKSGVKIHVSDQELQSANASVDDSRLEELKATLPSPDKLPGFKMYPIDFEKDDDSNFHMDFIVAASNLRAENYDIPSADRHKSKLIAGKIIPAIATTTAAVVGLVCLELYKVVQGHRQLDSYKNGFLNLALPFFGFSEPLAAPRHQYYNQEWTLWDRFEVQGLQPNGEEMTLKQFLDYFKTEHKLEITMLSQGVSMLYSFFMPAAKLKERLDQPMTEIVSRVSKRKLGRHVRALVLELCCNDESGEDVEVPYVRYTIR

| Compound | IC50 [nM] |
| --- | --- |
| Cc1cc(N[C@@H]2C[C@H](COS(N)(=O)=O)[C@@H](O)[C@H]2O)n2nc(-c3ccccc3)cc2n1 (relative stereo) [Compound I-004, (rac)-{(1R,2R,3S,4R)-2,3-dihydroxy-4-[(5-methyl-2-phenylpyrazolo[1,5-a]pyrimidin-7-yl)amino]cyclopentyl}methyl rel-sulfamate] | 100 to 1000 |
| NS(=O)(=O)OC[C@H]1C[C@@H](Nc2ccnc3cc(-c4cccc(C(F)(F)F)c4)nn23)[C@H](O)[C@@H]1O (racemic) [Compound I-007, (rac)-((1R,2R,3S,4R)-2,3-Dihydroxy-4-((2-(3-(trifluoromethyl)phenyl)pyrazolo[1,5-a]pyrimidin-7-yl)amino)cyclopentyl)methyl rel-sulfamate] | < 10 |
| COc1ccc(C(F)(F)F)cc1-c1cc2nccc(N[C@@H]3C[C@H](COS(N)(=O)=O)[C@@H](O)[C@H]3O)n2n1 (racemic) [Compound I-065, (rac)-((1R,2R,3S,4R)-2,3-Dihydroxy-4-((2-(2-methoxy-5-(trifluoromethyl)phenyl)-pyrazolo[1,5-a]pyrimidin-7-yl)amino)cyclopentyl)methyl rel-sulfamate] | < 10 |
| NS(=O)(=O)OC[C@H]1C[C@@H](Nc2ccnc3cc(-c4cccc(Cc5ccccc5)c4)nn23)[C@H](O)[C@@H]1O (racemic) [Compound I-069, (rac)-((1R,2R,3S,4R)-4-(2-(3-benzylpenyl)pyrazolo[1,5-a]pyrimidin-7-ylamino)-2,3-dihydroxycyclopentyl)methyl rel-sulfamate] | 10 to 100 |
| NS(=O)(=O)OC[C@H]1C[C@@H](Nc2ccnc3cc(-c4cccc(C(=O)c5ccccc5)c4)nn23)[C@H](O)[C@@H]1O (racemic) [Compound I-073, (rac)-((1R,2R,3S,4R)-4-(2-(3-benzoylphenyl)pyrazolo[1,5-a]pyrimidin-7-ylamino)-2,3-dihydroxycyclopentyl)methyl rel-sulfamate] | 10 to 100 |
| NS(=O)(=O)OC[C@H]1C[C@@H](Nc2ccnc3cc(-c4ccc(C(F)(F)F)c5cccnc45)nn23)[C@H](O)[C@@H]1O (racemic) [Compound I-033, (rac)-((1R,2R,3S,4R)-2,3-dihydroxy-4-(2-(5-(trifluoromethyl)quinolin-8-yl)pyrazolo[1,5-a]pyrimidin-7-ylamino)cyclopentyl)methyl rel-sulfamate] | < 10 |
| NS(=O)(=O)OC[C@H]1C[C@@H](Nc2ccnc3cc(-c4ccc5cccnc5c4)nn23)[C@H](O)[C@@H]1O (racemic) [Compound I-043, (rac)-((1R,2R,3S,4R)-2,3-dihydroxy-4-(2-(quinolin-7-yl)pyrazolo[1,5-a]pyrimidin-7-ylamino)cyclopentyl)methyl rel-sulfamate] | < 10 |
| NS(=O)(=O)OC[C@H]1C[C@@H](Nc2c(Cl)cnc3c(Cl)c(-c4cccc(SC(F)(F)F)c4)nn23)[C@H](O)[C@@H]1O [Compound I-124, (s.e.)-{(1R,2R,3S,4R)-4-[(3,6-dichloro-2-{3-[(trifluoromethyl)sulfanyl]phenyl}pyrazolo[1,5-a]pyrimidin-7-yl)amino]-2,3-dihydroxycyclopentyl}methyl sulfamate] | 100 to 1000 |
| NS(=O)(=O)OC[C@H]1C[C@@H](Nc2ccnc3cc(-c4ccc5c(c4)oc4ccccc45)nn23)[C@H](O)[C@@H]1O (racemic) [Compound I-093, (rac)-((1R,2R,3S,4R)-4-(2-(dibenzo[b,d]furan-3-yl)pyrazolo[1,5-a]pyrimidin-7-ylamino)-2,3-dihydroxycyclopentyl)methyl rel-sulfamate] | < 10 |

Continued, values first:

| IC50 [nM] | Compound |
| --- | --- |
| 10 to 100 | NS(=O)(=O)OC[C@H]1C[C@@H](Nc2ccnc3cc(-c4ccc(Cl)cc4Cl)nn23)[C@H](O)[C@@H]1O (racemic) [Compound I-013, (rac)-[(1R,2R,3S,4R)-4-{[2-(2,4-dichlorophenyl)pyrazolo[1,5-a]pyrimidin-7-yl]amino}-2,3-dihydroxycylopentyl]methyl rel-sulfamate] |
| < 10 | COc1ccc(Cl)cc1-c1cc2nccc(N[C@@H]3C[C@H](COS(N)(=O)=O)[C@@H](O)[C@H]3O)n2n1 (racemic) [Compound I-020, (rac)-((1R,2R,3S,4R)-4-(2-(5-chloro-2-methoxyphenyl)pyrazolo[1,5-a]pyrimidin-7-ylamino)-2,3-dihydroxycyclopentyl)methyl rel-sulfamate] |
| < 10 | NS(=O)(=O)OC[C@H]1C[C@@H](Nc2ccnc3cc(-c4c[nH]c5ccc(Cl)cc45)nn23)[C@H](O)[C@@H]1O (racemic) [Compound I-054, (rac)-[(1R,2R,3S,4R)-4-{[2-(5-chloro-1H-indol-3-yl)pyrazolo[1,5-a]pyrimidin-7-yl]amino}-2,3-dihydroxycyclopentyl]methyl rel-sulfamate] |
| < 10 | NS(=O)(=O)OC[C@H]1C[C@@H](Nc2ccnc3cc(-c4cccc5[nH]ccc45)nn23)[C@H](O)[C@@H]1O (racemic) [Compound I-075, (rac)-((1R,2R,3S,4R)-4-(2-(1H-indol-4-yl)pyrazolo[1,5-a]pyrimidin-7-ylamino)-2,3-dihydroxycyclopentyl)methyl rel-sulfamate] |

Tested on: mouse acute myeloid leukemia (AML model)
Test: not given
Conditions: cited from earlier work

| Compound | anti-tumor activity |
| --- | --- |
| O=C1NN(c2ccc(F)c(Cl)c2)C(=O)/C1=C\c1ccc([N+](=O)[O-])o1 [PYZD-4409] | demonstrated anti-tumor activity |

Target: mouse UAE (Mus musculus (Mouse), UniProt Q02053)
Sequence (Q02053 whole entry): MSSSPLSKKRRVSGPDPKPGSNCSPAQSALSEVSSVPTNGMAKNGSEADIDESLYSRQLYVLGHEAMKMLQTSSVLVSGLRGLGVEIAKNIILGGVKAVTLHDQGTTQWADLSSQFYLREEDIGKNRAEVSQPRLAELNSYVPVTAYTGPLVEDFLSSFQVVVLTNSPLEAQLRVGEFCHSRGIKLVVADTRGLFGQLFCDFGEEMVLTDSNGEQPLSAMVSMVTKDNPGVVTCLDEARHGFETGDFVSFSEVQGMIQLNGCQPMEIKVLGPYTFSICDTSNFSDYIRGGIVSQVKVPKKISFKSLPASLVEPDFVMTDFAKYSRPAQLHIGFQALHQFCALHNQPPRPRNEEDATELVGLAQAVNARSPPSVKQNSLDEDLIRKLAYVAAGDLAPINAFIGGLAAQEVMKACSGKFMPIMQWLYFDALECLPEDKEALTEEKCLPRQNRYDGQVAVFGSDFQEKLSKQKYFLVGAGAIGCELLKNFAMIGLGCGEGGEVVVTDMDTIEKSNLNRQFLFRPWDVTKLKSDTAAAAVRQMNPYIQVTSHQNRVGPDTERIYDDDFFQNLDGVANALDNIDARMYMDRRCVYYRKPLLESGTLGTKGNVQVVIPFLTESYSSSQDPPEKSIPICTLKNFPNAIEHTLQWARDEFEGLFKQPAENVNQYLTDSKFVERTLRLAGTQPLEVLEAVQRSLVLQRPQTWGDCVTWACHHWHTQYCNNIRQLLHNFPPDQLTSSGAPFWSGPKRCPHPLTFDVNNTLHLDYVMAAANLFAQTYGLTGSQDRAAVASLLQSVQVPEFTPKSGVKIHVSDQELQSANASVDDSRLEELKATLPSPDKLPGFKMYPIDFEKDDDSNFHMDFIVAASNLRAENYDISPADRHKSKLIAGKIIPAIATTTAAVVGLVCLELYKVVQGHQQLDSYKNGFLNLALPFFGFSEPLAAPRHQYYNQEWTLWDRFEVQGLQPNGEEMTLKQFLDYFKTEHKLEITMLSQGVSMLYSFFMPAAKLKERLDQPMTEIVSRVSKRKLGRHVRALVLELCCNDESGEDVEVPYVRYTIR
Test: Ubiquitin Activating Enzyme (UAE) HTRF assay, mouse UAE
Conditions: not given

| Compound | IC50 [nM] |
| --- | --- |
| NS(=O)(=O)OC[C@H]1C[C@@H](Nc2ccnc3cc(-c4ccccc4)nn23)[C@H](O)[C@@H]1O (racemic) [Compound I-001, (rac)-((1R,2R,3S,4R)-2,3-dihydroxy-4-(2-phenylpyrazolo[1,5-a]pyrimidin-7-ylamino)cyclopentyl)methyl rel-sulfamate] | 10 to 100 |
| NS(=O)(=O)OC[C@H]1C[C@@H](Nc2cc(Cl)nc3cc(-c4ccccn4)nn23)[C@H](O)[C@@H]1O (racemic) [Compound I-011, (rac)-((1R,2R,3S,4R)-4-(5-chloro-2-(pyridin-2-yl)pyrazolo[1,5-a]pyrimidin-7-ylamino)-2,3-dihydroxycyclopentyl)methyl rel-sulfamate] | 100 to 1000 |
| NS(=O)(=O)OC[C@H]1C[C@@H](Nc2ccnc3cc(-c4ccccn4)nn23)[C@H](O)[C@@H]1O (racemic) [Compound I-012, (rac)-[(1R,2R,3S,4R)-2,3-dihydroxy-4-{[2-(pyridin-2-yl)pyrazolo[1,5-a]pyrimidin-7-yl]amino}cyclopentyl]methyl rel-sulfamate] | 10 to 100 |

Now from value to compound:

| IC50 [nM] | Compound |
| --- | --- |
| < 10 | NS(=O)(=O)OC[C@H]1C[C@@H](Nc2ccnc3cc(-c4cccc5ccccc45)nn23)[C@H](O)[C@@H]1O (racemic) [Compound I-002, (rac)-((1R,2R,3S,4R)-2,3-dihydroxy-4-{[2-(1-naphthyl)pyrazolo[1,5-a]-pyrimidin-7-yl]amino}cyclopentyl)methyl rel-sulfamate] |
| < 10 | NS(=O)(=O)OC[C@H]1C[C@@H](Nc2ccnc3cc(-c4cccc(Cl)c4)nn23)[C@H](O)[C@@H]1O (racemic) [Compound I-005, (rac)-((1R,2R,3S,4R)-4-((2-(3-Chlorophenyl)pyrazolo[1,5-a]pyrimidin-7-yl)amino)-2,3-dihydroxycyclopentyl)methyl rel-sulfamate] |
| < 10 | NS(=O)(=O)OC[C@H]1C[C@@H](Nc2ccnc3cc(-c4csc5cc(Cl)ccc45)nn23)[C@H](O)[C@@H]1O (racemic) [Compound I-091, (rac)-((1R,2R,3S,4R)-4-(2-(6-chlorobenzo[b]thiophen-3-yl)pyrazolo[1,5-a]pyrimidin-7-ylamino)-2,3-dihydroxycyclopentyl)methyl rel-sulfamate] |

Tested on: leukemia and myeloma cell lines
Test: not given
Conditions: cited from earlier work

| Compound | cell death |
| --- | --- |
| O=C1NN(c2ccc(F)c(Cl)c2)C(=O)/C1=C\c1ccc([N+](=O)[O-])o1 [PYZD-4409] | induced cell death |
